Source: US20140228287A1, “1-[(3-CYANO-PYRIDIN-2-YL)METHYL]-3-METHYL-7-(2-BUTYN-1-YL)-8-[3-(R)-AMINO-PIPERIDIN-1-YL]-AXANTHINE FOR THE TREATMENT OF A METABOLIC DISORDER OF A PREDOMINANTLY CARNIVOROUS NON-HUMAN ANIMAL” (BOEHRINGER INGELHEIM VETMEDICA GMBH, priority 2010, published 2014)
Counter-ions that a name gives are not always drawn. Like-named read-outs stand apart in the source and are kept apart here.

Tests used:
diabetic db/db mice = experiment: Delayed OGTT in diabetic db/db mice; type: in vivo, mouse; details: 1 mg/kg 16 hours before the test
Description: A delayed oral glucose tolerance test (OGTT) was applied to diabetic db/db mice and diabetic ZDF rats, as describes in the following.
Male obese diabetic db/db mice (C57BL/KSJ@Rj-db) were obtained from Janvier (France). Animals were fed ad libitum with a standard pelleted diet (Diet No. 3438 [containing 19% protein, 4.5% fat], Provimi Kliba, Switzerland) and had free access to water. Animals were housed in groups with a 12 h/12 h light/dark cycle (lights out between 6 p.m. and 6 a.m.). The mice used for these experiments were between 9 and 10 weeks of age.
The day before the OGTT, a blood sample from db/db mice or ZDF rats fasted for 2 hours was obtained by cutting the tip of the tail without anaesthesia and the animals were randomized for glucose (n=7 per group). The animals were fed again for 2 hours and then orally administered with either vehicle or 1-[(3-cyano-pyridin-2-yl)methyl]-3-methyl-7-(2-butyn-1-yl)-8-[3-(R)-amino-piperidin-1-yl]-xanthine monohydrochloride at doses between 0.3 and 3 mg/kg bw. A basal blood sample (pre-load) was obtained the next morning after overnight fasting for 16 hours by cutting the tip of the tail without anaesthesia. […] Additional blood samples were taken from the tip of the tail 30 min, 60 min, 90 min, 120 min, and 180 min after the glucose load, and blood glucose was measured. […]

DPP IV = target: T1, DPP IV (Felis catus, UniProt Q9N2I7); experiment: Exploratory single dose PK/PD (0.3/1.0/3.0 mg/kg) in cats: DPP IV activity; type: in vivo, cat; details: for response vs control in vivo at 0.3 mg/kg: 0.3 mg/kg single oral; for response vs control in vivo at 0.3 mg/kg / response vs control in vivo at 1 mg/kg / response vs control in vivo at 3 mg/kg: read-out: DPP IV activity in cat plasma (0 h = 100%); for response vs control in vivo at 1 mg/kg: 1 mg/kg single oral; for response vs control in vivo at 3 mg/kg: 3 mg/kg single oral
T1 construct: Blood samples for the determination of this compound and DPP IV activity were collected; from tissue; host or cells: plasma of domestic short hair / purpose-bred cats dosed orally
T1 sequence (Q9N2I7 38-765 limits assumed): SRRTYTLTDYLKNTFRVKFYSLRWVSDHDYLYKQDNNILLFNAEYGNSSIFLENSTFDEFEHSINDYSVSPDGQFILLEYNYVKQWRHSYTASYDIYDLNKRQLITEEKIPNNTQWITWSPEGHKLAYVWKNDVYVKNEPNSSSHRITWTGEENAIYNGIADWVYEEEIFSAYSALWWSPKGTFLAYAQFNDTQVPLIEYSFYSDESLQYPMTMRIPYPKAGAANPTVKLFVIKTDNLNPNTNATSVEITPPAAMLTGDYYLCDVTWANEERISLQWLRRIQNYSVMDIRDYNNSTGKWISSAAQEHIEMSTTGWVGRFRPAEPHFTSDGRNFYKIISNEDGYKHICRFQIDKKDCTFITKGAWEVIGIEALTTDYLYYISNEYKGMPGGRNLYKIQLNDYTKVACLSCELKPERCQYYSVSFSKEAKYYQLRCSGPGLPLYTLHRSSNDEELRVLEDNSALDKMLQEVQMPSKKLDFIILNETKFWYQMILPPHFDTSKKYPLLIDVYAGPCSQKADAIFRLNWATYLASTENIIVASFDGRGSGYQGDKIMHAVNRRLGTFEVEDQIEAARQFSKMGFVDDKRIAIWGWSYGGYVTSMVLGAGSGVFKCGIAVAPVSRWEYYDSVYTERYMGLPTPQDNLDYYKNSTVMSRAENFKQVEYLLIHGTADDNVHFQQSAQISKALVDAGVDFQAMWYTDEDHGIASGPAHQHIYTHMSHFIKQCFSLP
Description: The aim of this first study was to investigate the PK/PD of 1-[(3-cyano-pyridin-2-yl)methyl]-3-methyl-7-(2-butyn-1-yl)-8-[3-(R)-amino-piperidin-1-yl]-xanthine in the cat after a single oral administration of 0, 0.3, 1.0 and 3.0 mg/kg body weight. For this purpose, twelve male clinically healthy adult domestic short hair cats with a body weight range of 3.5-4.5 kg were used. All animals were treated once orally with placebo or the respective 1-[(3-cyano-pyridin-2-yl)methyl]-3-methyl-7-(2-butyn-1-yl)-8-[3-(R)-amino-piperidin-1-yl]-xanthine monohydrochloride dose formulation. Blood samples for the determination of this compound and DPP IV activity were collected at 0 (pre-dose), 0.5, 1, 2, 4, 8, 24, 36, 48, 72 and 96 hours after treatment and the activity of DPP IV was determined like in example 6.
The resulting pharmacodynamic data from this experiment are summarized in following Table 3; the value of 0 h was set to 100% for each treatment.

blood glucose = experiment: Glucose monitoring in obese/non-obese cats, 7 days once daily dosing; type: in vivo, cat; details: 9 mg once daily 7 days; for Glucose, Max / Glucose, Mean / Glucose, Median / Glucose, Min: all 14 obese and non-obese cats, 168 hour period
From the text: The aim of this exploratory, randomized, placebo controlled crossover study was to investigate the effect of 1-[(3-cyano-pyridin-2-yl)methyl]-3-methyl-7-(2-butyn-1-yl)-8-[3-(R)-amino-piperidin-1-yl]-xanthine monohydrochloride on DPP IV activity and on glucose concentrations in obese and non-obese cats after repeated oral administration over seven days.
Fourteen clinically healthy male and female (8 obese and 6 non-obese) purpose-bred cats were used in this study. The animals were randomly allocated to two groups of cats, obese and non-obese, and treated in a cross-over design with 9 mg 1-[(3-cyano-pyridin-2-yl)methyl]-3-methyl-7-(2-butyn-1-yl)-8-[3-(R)-amino-piperidin-1-yl]-xanthine monohydrochloride or placebo, once daily for 7 days, with a following wash-out period of 21 days.
Cats were fed once daily 40 min after administration of the compound or the placebo, respectively.
To allow a Continuous glucose monitoring (CGM) a Continuous glucose monitoring system (CGMS) was applied. To this end, on day 1 a Medtronic continuous glucose monitoring sensor (Guardian system; Medtronic Minimed, Northridge, Calif., USA) was placed interstitially. The skin was shaved, and then wiped several times with 70% alcohol. The sensor was inserted into the skin and secured to the skin with a cover provided by Medtronics, and Elasticon. The CGMS was calibrated 2 times daily using a glucometer. When a sensor became non-functional, a new sensor was placed. The sensors were placed between the shoulder blades. Data were recalled via a wireless system.
Also blood samples for were taken before and 6, 12, 24, 64, and 168 hours (3 ml each) after oral administration of the test compound or the placebo. Blood samples for the calibration of the CGMS were taken at least twice daily from day 1 to day 7 approximately twelve hours apart (0.2 ml of blood each time). Glucose measurements were performed using a glucometer (Presto WaveSense) and also a colorimetric glucose oxidase method (Genzyme Diagnostics PEI Incorporated; Charlottetown, Canada), reference method, at appropriate time points (0.2 ml each time; see results section). Interstitial glucose concentrations were followed with the continuous glucose monitoring system. After 7 days, the CGMS was removed.
The measured mean, median, min, and max glucose values for all 14 cats during a 168 hour testing period using the three glucose measurement methods are shown in Table 9.

[1] = Glucose oxidase (reference method)

Question: With `CC#CCn1c(N2CCC[C@@H](N)C2)nc2c1c(=O)n(Cc1ncccc1C#N)c(=O)n2C` [1-[(3-cyano-pyridin-2-yl)methyl]-3-methyl-7-(2-butyn-1-yl)-8-[3-(R)-amino-piperidin-1-yl]-xanthine monohydrochloride] as the compound, how does the “reduction of glucose AUC in OGTT” value (diabetic db/db mice) read?
Answer: The value was 39%.

Question: And the response vs control in vivo at 0.3 mg/kg (DPP IV; 0.5 h)?
Answer: The response vs control in vivo at 0.3 mg/kg was 15%.

Question: What about the response vs control in vivo at 0.3 mg/kg (DPP IV; 1 h) of the same compound?
Answer: The response vs control in vivo at 0.3 mg/kg was 13%.

Question: And the response vs control in vivo at 0.3 mg/kg (DPP IV; 2 h)?
Answer: Its response vs control in vivo at 0.3 mg/kg is 13%.

Question: And the response vs control in vivo at 0.3 mg/kg (DPP IV; 4 h)?
Answer: The response vs control in vivo at 0.3 mg/kg was 15%.

Question: And the response vs control in vivo at 0.3 mg/kg (DPP IV; 8 h)?
Answer: Its response vs control in vivo at 0.3 mg/kg is 19%.

Question: What about the response vs control in vivo at 0.3 mg/kg (DPP IV; 24 h) of the same compound?
Answer: Its response vs control in vivo at 0.3 mg/kg is 54%.

Question: And the response vs control in vivo at 0.3 mg/kg (DPP IV; 36 h)?
Answer: Its response vs control in vivo at 0.3 mg/kg is 84%.

Question: What about the response vs control in vivo at 0.3 mg/kg (DPP IV; 48 h) of the same compound?
Answer: The response vs control in vivo at 0.3 mg/kg was 93%.

Question: And the response vs control in vivo at 0.3 mg/kg (DPP IV; 72 h)?
Answer: Its response vs control in vivo at 0.3 mg/kg is 95%.

Question: And the response vs control in vivo at 0.3 mg/kg (DPP IV; 96 h)?
Answer: Its response vs control in vivo at 0.3 mg/kg is 95%.

Question: And the response vs control in vivo at 1 mg/kg (DPP IV; 0.5 h)?
Answer: Its response vs control in vivo at 1 mg/kg is 11%.

Question: And the response vs control in vivo at 1 mg/kg (DPP IV; 1 h)?
Answer: The response vs control in vivo at 1 mg/kg was 11%.

Question: And the response vs control in vivo at 1 mg/kg (DPP IV; 2 h)?
Answer: The response vs control in vivo at 1 mg/kg was 12%.

Question: And the response vs control in vivo at 1 mg/kg (DPP IV; 4 h)?
Answer: Its response vs control in vivo at 1 mg/kg is 12%.

Question: What about the response vs control in vivo at 1 mg/kg (DPP IV; 8 h) of the same compound?
Answer: Its response vs control in vivo at 1 mg/kg is 15%.

Question: And the response vs control in vivo at 1 mg/kg (DPP IV; 24 h)?
Answer: The response vs control in vivo at 1 mg/kg was 42%.

Question: What about the response vs control in vivo at 1 mg/kg (DPP IV; 36 h) of the same compound?
Answer: Its response vs control in vivo at 1 mg/kg is 67%.

Question: What about the response vs control in vivo at 1 mg/kg (DPP IV; 48 h) of the same compound?
Answer: Its response vs control in vivo at 1 mg/kg is 80%.

Question: And the response vs control in vivo at 1 mg/kg (DPP IV; 72 h)?
Answer: Its response vs control in vivo at 1 mg/kg is 91%.

Question: And the response vs control in vivo at 1 mg/kg (DPP IV; 96 h)?
Answer: Its response vs control in vivo at 1 mg/kg is 92%.

Question: What about the response vs control in vivo at 3 mg/kg (DPP IV; 0.5 h) of the same compound?
Answer: The response vs control in vivo at 3 mg/kg was 16%.

Question: And the response vs control in vivo at 3 mg/kg (DPP IV; 1 h)?
Answer: The response vs control in vivo at 3 mg/kg was 13%.

Question: And the response vs control in vivo at 3 mg/kg (DPP IV; 2 h)?
Answer: The response vs control in vivo at 3 mg/kg was 12%.

Question: And the response vs control in vivo at 3 mg/kg (DPP IV; 4 h)?
Answer: The response vs control in vivo at 3 mg/kg was 14%.

Question: And the response vs control in vivo at 3 mg/kg (DPP IV; 8 h)?
Answer: The response vs control in vivo at 3 mg/kg was 17%.

Question: What about the response vs control in vivo at 3 mg/kg (DPP IV; 24 h) of the same compound?
Answer: Its response vs control in vivo at 3 mg/kg is 49%.

Question: And the response vs control in vivo at 3 mg/kg (DPP IV; 36 h)?
Answer: The response vs control in vivo at 3 mg/kg was 66%.

Question: And the response vs control in vivo at 3 mg/kg (DPP IV; 48 h)?
Answer: The response vs control in vivo at 3 mg/kg was 85%.

Question: And the response vs control in vivo at 3 mg/kg (DPP IV; 72 h)?
Answer: Its response vs control in vivo at 3 mg/kg is 101%.

Question: And the response vs control in vivo at 3 mg/kg (DPP IV; 96 h)?
Answer: The response vs control in vivo at 3 mg/kg was 95%.

Question: What about the “inhibition of DPP IV” value (DPP IV; all doses (0.3, 1.0, 3.0 mg/kg single oral)) of the same compound?
Answer: The value was “more than 80%”.

Question: What about the “Glucose, Max” value (blood glucose; CGM) of the same compound?
Answer: The value was 126 mg/dL.

Question: And the “Glucose, Mean” value (blood glucose; CGM)?
Answer: The value was 94 mg/dL.

Question: What about the “Glucose, Median” value (blood glucose; CGM) of the same compound?
Answer: The value was 93 mg/dL.

Question: What about the “Glucose, Min” value (blood glucose; CGM) of the same compound?
Answer: The value was 66 mg/dL.

Question: What about the “Glucose, Max” value (blood glucose; Glucometer) of the same compound?
Answer: Its value is 131 mg/dL.

Question: And the “Glucose, Mean” value (blood glucose; Glucometer)?
Answer: The value was 103 mg/dL.

Question: And the “Glucose, Median” value (blood glucose; Glucometer)?
Answer: Its value is 101 mg/dL.

Question: What about the “Glucose, Min” value (blood glucose; Glucometer) of the same compound?
Answer: Its value is 79 mg/dL.

Question: And the “Glucose, Max” value (blood glucose; [1])?
Answer: The value was 142 mg/dL.

Question: And the “Glucose, Mean” value (blood glucose; [1])?
Answer: Its value is 93 mg/dL.

Question: What about the “Glucose, Median” value (blood glucose; [1]) of the same compound?
Answer: The value was 89 mg/dL.

Question: And the “Glucose, Min” value (blood glucose; [1])?
Answer: The value was 71 mg/dL.

Question: What about the “daily blood glucose concentrations, treated vs placebo treated” value (blood glucose; obese or non-obese cats) of the same compound?
Answer: Its value is “no difference in daily blood glucose concentrations”.
